Laboratory results taken from paper PMC10162847 (Phytomedicine, 2023).
Like-named read-outs stand apart in the source and are kept apart here.

Tests used:
HCoV-229E = experiment: microbe, parasite or virus in culture; type: cell-based; details: Human coronavirus 229E
[1] = target: interactions between the RBD^WT and ACE2 protein (Severe acute respiratory syndrome coronavirus 2, UniProt P0DTC2); type: binding; details: ELISA
[2] = system: SARS-CoV-2 pseudo typed lentivirus; type: cell-based; details: fluorescence signal, 0-300 μM, pre-incubation 0.5 h
[3] = system: RIPK1/NF-κB pathway in THP1 macrophages; type: cell-based
[4] = system: carrageenan-induced paw edema; experiment: Carrageenan-induced paw edema in rats; type: in vivo, Sprague-Dawley (SD) rats; details: oral 50, 100, 200 mg/kg for 7 days, 2nd-5th h after carrageenan injection
[5] = system: LPS-induced acute lung injury; type: in vivo, C57BL/6 mice; details: ALI mice
Vero E6 cells = details: MTT, 72 h
DNFB-induced ear edema = details: DTH model
[6] = system: dimethylbenzene-induced auricular edema
[7] = KM mice, oral 6000 mg/kg (2000 mg/kg 3 times within 24 h), 7 days observation
SARS-CoV-2 = type: cell-based; details: VeroE6 cells, concentration-dependent
in vitro = details: human
[8] = Huh-7, read-out: EC50, HCoV-229E replication, CPE assay
[9] = Huh-7, read-out: EC50, HCoV-229E replication, MTT assay
[10] = western blotting, THP1 macrophages
[11] = oral pre-treatment 200, 300, 400 mg/kg

Row | SMILES | EC50 (HCoV-229E; [8]) [µM] | EC50 (HCoV-229E; [9]) [µM] | interactions between the RBD^WT and ACE2 protein [1] | binding of the SARS-CoV-2 pseudo typed lentivirus to HEK293-hACE2-mCherry cells [2] | RIPK1 expression levels and mRNA levels of NF-κBp65, RIPK3, RIPK1, MLKL, FADD, Caspase8 and JNK ([3]; LPS-induced THP1 macrophages, 100, 200, 400 μM) | RIPK1, phosphorylation of NF-κBp65 and RIPK1 induced by LPS stimulation [3, 10] | abundance of the NF-κBp65 protein among the total proteins [3, 10] | inflammatory activity (paw edema) [4] | mRNA levels of TNFα, IL-6 and NF-κBp65 in the lung tissues [5] | alveolar inflammation [5, 11] | lung edema [5, 11] | CC50 (Vero E6 cells) [µM] | organ damage (DNFB-induced ear edema; BALB/c mice) | mouse ear thickness (DNFB-induced ear edema; oral 50, 100, 200 mg/kg, 20, 40, 60 and 80 min after modeling) | immune organ toxicity ([6]; dimethylbenzene-induced auricular edema model) | edema formation in the dermis ([6]; dimethylbenzene-induced auricular edema, 7 days pre-treatment) | acute toxicity, exposure-related clinical symptoms [7] | SARS-CoV-2 proliferation (SARS-CoV-2) | CC50 (in vitro) [µM]
1 | O=c1c(O)c(-c2cc(O)c(O)c(O)c2)oc2cc(O)cc(O)c12 [myricetin, 3,5,7-trihydroxy-2-(3,4,5-tri hydroxyphenyl)-4-benzopyrone] | 53.5 | 61.5 | significantly inhibited | repressed | significantly reduced | significantly inhibited | unaltered | significantly reduce | significantly downregulated | decreased the alveolar inflammation | alleviated lung edema | 248 | without any organ damage | decreased | without immune organ toxicity | significantly suppressed | no exposure-related clinical signs | – | –
2 | CCC(CC)COC(=O)[C@H](C)N[P@](=O)(OC[C@H]1O[C@@](C#N)(c2ccc3c(N)ncnn23)[C@H](O)[C@@H]1O)Oc1ccccc1 [remdesivir, reference compound] | 0.0562 | 0.0583 | – | – | – | – | – | – | – | – | – | – | – | – | – | – | – | inhibited | 108
